{
  "source": "patent US10975080B2",
  "about": "“Compounds and compositions for inhibiting the activity of SHP2” (NOVARTIS AG, priority 2015, dated 2021)",
  "molecular_target": "SHP2 (Homo sapiens (Human), UniProt Q06124)",
  "sequence (Q06124 whole entry)": "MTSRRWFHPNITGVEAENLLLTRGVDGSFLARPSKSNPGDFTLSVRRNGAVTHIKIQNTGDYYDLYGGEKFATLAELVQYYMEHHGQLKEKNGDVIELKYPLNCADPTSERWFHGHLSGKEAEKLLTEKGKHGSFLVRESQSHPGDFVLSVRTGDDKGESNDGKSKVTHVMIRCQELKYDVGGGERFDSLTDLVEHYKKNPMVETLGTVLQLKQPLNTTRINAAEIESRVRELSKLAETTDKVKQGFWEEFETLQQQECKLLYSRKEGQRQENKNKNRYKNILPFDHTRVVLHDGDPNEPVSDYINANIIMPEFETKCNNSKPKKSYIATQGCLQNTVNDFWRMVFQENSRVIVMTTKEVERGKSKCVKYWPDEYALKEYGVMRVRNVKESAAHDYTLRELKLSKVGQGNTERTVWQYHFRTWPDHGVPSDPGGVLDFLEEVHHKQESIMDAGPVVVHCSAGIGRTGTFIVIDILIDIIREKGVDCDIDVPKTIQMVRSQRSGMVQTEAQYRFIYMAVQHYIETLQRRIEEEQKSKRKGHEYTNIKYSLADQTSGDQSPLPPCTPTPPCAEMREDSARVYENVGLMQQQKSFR",
  "assay": "SHP2 Allosteric Inhibition Assay",
  "format": "biochemical",
  "settings": "0.5 nM SHP2 with 0.5 μM peptide IRS1_pY1172(dPEG8)pY1222; surrogate substrate DiFMUP; 25° C.; read-out: SHP2 IC50",
  "text": "SHP2 Allosteric Inhibition Assay\nSHP2 is allosterically activated through binding of bis-tyrosyl-phosphorylated peptides to its Src Homology 2 (SH2) domains. The latter activation step leads to the release of the auto-inhibitory interface of SHP2, which in turn renders the SHP2 protein tyrosine phosphatase (PTP) active and available for substrate recognition and reaction catalysis. The catalytic activity of SHP2 was monitored using the surrogate substrate DiFMUP in a prompt fluorescence assay format.\nAfter 30-60 minutes incubation at 25° C., the surrogate substrate DiFMUP (Invitrogen, cat #D6567) was added to the reaction and incubated at 25° C. for 30 minutes. […] The inhibitor dose response curves were analyzed using normalized IC50 regression curve fitting with control based normalization.",
  "note": "pIC50: −log10 of the molar value.",
  "data": [
    {"compound": "Cc1nc(N)ccc1-c1n[nH]c2nc(N3CCC4(CC3)C[C@@H](C(F)(F)F)C[C@H]4N)n(C)c(=O)c12", "note": "[Example 53, 3-(6-amino-2-methylpyridin-3-yl)-6-((1R,3R)-1-amino-3-(trifluoromethyl)-8-azaspiro[4.5]decan-8-yl)-5-methyl-1,5-dihydro-4H-pyrazolo[3,4-d]pyrimidin-4-one]", "values": [
      {"measurement": "pIC50", "value": 7.44}
    ]},
    {"compound": "Cn1c(N2CCC3(CC2)C[C@@H](C(F)(F)F)C[C@H]3N)nc2[nH]nc(-c3ccncc3)c2c1=O", "note": "[Example 54, 6-((1R,3R)-1-amino-3-(trifluoromethyl)-8-azaspiro[4.5]decan-8-yl)-5-methyl-3-(pyridin-4-yl)-1,5-dihydro-4H-pyrazolo[3,4-d]pyrimidin-4-one]", "values": [
      {"measurement": "pIC50", "value": 7.68}
    ]},
    {"compound": "C[C@@H]1OCC2(CCN(c3nc4[nH]nc(-c5cccc(N)c5)c4c(=O)n3C)CC2)[C@@H]1N", "note": "[Example 55, 6-((3S,4S)-4-amino-3-methyl-2-oxa-8-azaspiro[4.5]decan-8-yl)-3-(3-aminophenyl)-5-methyl-1,5-dihydro-4H-pyrazolo[3,4-d]pyrimidin-4-one]", "values": [
      {"measurement": "pIC50", "value": 7.08}
    ]},
    {"compound": "C[C@@H]1OCC2(CCN(c3nc4[nH]nc(-c5ccc6c(c5)CCO6)c4c(=O)n3C)CC2)[C@@H]1N", "note": "[Example 56, 6-((3S,4S)-4-amino-3-methyl-2-oxa-8-azaspiro[4.5]decan-8-yl)-3-(2,3-dihydrobenzofuran-5-yl)-5-methyl-1,5-dihydro-4H-pyrazolo[3,4-d]pyrimidin-4-one]", "values": [
      {"measurement": "pIC50", "value": 7.02}
    ]},
    {"compound": "C[C@@H]1OCC2(CCN(c3nc4[nH]nc(-c5ccc(F)cc5)c4c(=O)n3C)CC2)[C@@H]1N", "note": "[Example 57, 6-((3S,4S)-4-amino-3-methyl-2-oxa-8-azaspiro[4.5]decan-8-yl)-3-(4-fluorophenyl)-5-methyl-1,5-dihydro-4H-pyrazolo[3,4-d]pyrimidin-4-one]", "values": [
      {"measurement": "pIC50", "value": 7.96}
    ]},
    {"compound": "C[C@@H]1OCC2(CCN(c3nc4[nH]nc(-c5ccc(F)c(F)c5)c4c(=O)n3C)CC2)[C@@H]1N", "note": "[Example 58, 6-((3S,4S)-4-amino-3-methyl-2-oxa-8-azaspiro[4.5]decan-8-yl)-3-(3,4-difluorophenyl)-5-methyl-1,5-dihydro-4H-pyrazolo[3,4-d]pyrimidin-4-one]", "values": [
      {"measurement": "pIC50", "value": 7.96}
    ]},
    {"compound": "COc1ccc(-c2n[nH]c3nc(N4CCC5(CC4)CO[C@@H](C)[C@H]5N)n(C)c(=O)c23)cc1F", "note": "[Example 59, 6-((3S,4S)-4-amino-3-methyl-2-oxa-8-azaspiro[4.5]decan-8-yl)-3-(3-fluoro-4-methoxyphenyl)-5-methyl-1,5-dihydro-4H-pyrazolo[3,4-d]pyrimidin-4-one]", "values": [
      {"measurement": "pIC50", "value": 7.89}
    ]},
    {"compound": "C[C@@H]1OCC2(CCN(c3nc4[nH]nc(-c5cccc(F)c5F)c4c(=O)n3C)CC2)[C@@H]1N", "note": "[Example 60, 6-((3S,4S)-4-amino-3-methyl-2-oxa-8-azaspiro[4.5]decan-8-yl)-3-(2,3-difluorophenyl)-5-methyl-1,5-dihydro-4H-pyrazolo[3,4-d]pyrimidin-4-one]", "values": [
      {"measurement": "pIC50", "value": 7.89}
    ]},
    {"compound": "C[C@@H]1OCC2(CCN(c3nc4[nH]nc(-c5cccc(F)c5)c4c(=O)n3C)CC2)[C@@H]1N", "note": "[Example 61, 6-((3S,4S)-4-amino-3-methyl-2-oxa-8-azaspiro[4.5]decan-8-yl)-3-(3-fluorophenyl)-5-methyl-1,5-dihydro-4H-pyrazolo[3,4-d]pyrimidin-4-one]", "values": [
      {"measurement": "pIC50", "value": 7.85}
    ]},
    {"compound": "C[C@@H]1OCC2(CCN(c3nc4[nH]nc(-c5cc(F)ccc5F)c4c(=O)n3C)CC2)[C@@H]1N", "note": "[Example 62, 6-((3S,4S)-4-amino-3-methyl-2-oxa-8-azaspiro[4.5]decan-8-yl)-3-(2,5-difluorophenyl)-5-methyl-1,5-dihydro-4H-pyrazolo[3,4-d]pyrimidin-4-one]", "values": [
      {"measurement": "pIC50", "value": 7.77}
    ]},
    {"compound": "C[C@@H]1OCC2(CCN(c3nc4[nH]nc(-c5ccccc5F)c4c(=O)n3C)CC2)[C@@H]1N", "note": "[Example 63, 6-((3S,4S)-4-amino-3-methyl-2-oxa-8-azaspiro[4.5]decan-8-yl)-3-(2-fluorophenyl)-5-methyl-1,5-dihydro-4H-pyrazolo[3,4-d]pyrimidin-4-one]", "values": [
      {"measurement": "pIC50", "value": 7.64}
    ]},
    {"compound": "COc1ccc(-c2n[nH]c3nc(N4CCC5(CC4)CO[C@@H](C)[C@H]5N)n(C)c(=O)c23)cn1", "note": "[Example 64, 6-((3S,4S)-4-amino-3-methyl-2-oxa-8-azaspiro[4.5]decan-8-yl)-3-(6-methoxypyridin-3-yl)-5-methyl-1,5-dihydro-4H-pyrazolo[3,4-d]pyrimidin-4-one]", "values": [
      {"measurement": "pIC50", "value": 7.62}
    ]},
    {"compound": "C[C@@H]1OCC2(CCN(c3nc4[nH]nc(-c5cc(F)cc(F)c5)c4c(=O)n3C)CC2)[C@@H]1N", "note": "[Example 65, 6-((3S,4S)-4-amino-3-methyl-2-oxa-8-azaspiro[4.5]decan-8-yl)-3-(3,5-difluorophenyl)-5-methyl-1,5-dihydro-4H-pyrazolo[3,4-d]pyrimidin-4-one]", "values": [
      {"measurement": "pIC50", "value": 7.42}
    ]},
    {"compound": "COc1ccccc1-c1n[nH]c2nc(N3CCC4(CC3)CO[C@@H](C)[C@H]4N)n(C)c(=O)c12", "note": "[Example 66, 6-((3S,4S)-4-amino-3-methyl-2-oxa-8-azaspiro[4.5]decan-8-yl)-3-(2-methoxyphenyl)-5-methyl-1,5-dihydro-4H-pyrazolo[3,4-d]pyrimidin-4-one]", "values": [
      {"measurement": "pIC50", "value": 7.04}
    ]},
    {"compound": "Cc1ncccc1-c1n[nH]c2nc(N3CCC4(CC3)CO[C@@H](C)[C@H]4N)n(C)c(=O)c12", "note": "[Example 67, 6-((3S,4S)-4-amino-3-methyl-2-oxa-8-azaspiro[4.5]decan-8-yl)-5-methyl-3-(2-methylpyridin-3-yl)-1,5-dihydro-4H-pyrazolo[3,4-d]pyrimidin-4-one]", "values": [
      {"measurement": "pIC50", "value": 7.02}
    ]},
    {"compound": "COc1cccc(-c2n[nH]c3nc(N4CCC5(CC4)COC[C@H]5N)n(C)c(=O)c23)c1Cl", "note": "[Example 68, (S)-6-(4-amino-2-oxa-8-azaspiro[4.5]decan-8-yl)-3-(2-chloro-3-methoxyphenyl)-5-methyl-1,5-dihydro-4H-pyrazolo[3,4-d]pyrimidin-4-one]", "values": [
      {"measurement": "pIC50", "value": 7.60}
    ]},
    {"compound": "Cn1c(N2CCC3(CC2)COC[C@H]3N)nc2[nH]nc(-c3ccncc3)c2c1=O", "note": "[Example 69, (S)-6-(4-amino-2-oxa-8-azaspiro[4.5]decan-8-yl)-5-methyl-3-(pyridin-4-yl)-1,5-dihydro-4H-pyrazolo[3,4-d]pyrimidin-4-one]", "values": [
      {"measurement": "pIC50", "value": 7.41}
    ]},
    {"compound": "C[C@@H]1OCC2(CCN(c3nc4[nH]nc(-c5ccncc5)c4c(=O)n3C)CC2)[C@@H]1N", "note": "[Example 70, 6-((3S,4S)-4-amino-3-methyl-2-oxa-8-azaspiro[4.5]decan-8-yl)-5-methyl-3-(pyridin-4-yl)-1,5-dihydro-4H-pyrazolo[3,4-d]pyrimidin-4-one]", "values": [
      {"measurement": "pIC50", "value": 8.10}
    ]},
    {"compound": "C[C@@H]1OCC2(CCN(c3nc4[nH]nc(-c5ccnc(N(C)C)c5Cl)c4c(=O)n3C)CC2)[C@@H]1N", "note": "[Example 71, 6-((3S,4S)-4-amino-3-methyl-2-oxa-8-azaspiro[4.5]decan-8-yl)-3-(3-chloro-2-(dimethylamino)pyridin-4-yl)-5-methyl-1,5-dihydro-4H-pyrazolo[3,4-d]pyrimidin-4-one]", "values": [
      {"measurement": "pIC50", "value": 7.66}
    ]},
    {"compound": "CCNc1nccc(-c2n[nH]c3nc(N4CCC5(CC4)CO[C@@H](C)[C@H]5N)n(C)c(=O)c23)c1Cl", "note": "[Example 72, 6-((3S,4S)-4-amino-3-methyl-2-oxa-8-azaspiro[4.5]decan-8-yl)-3-(3-chloro-2-(ethylamino)pyridin-4-yl)-5-methyl-1,5-dihydro-4H-pyrazolo[3,4-d]pyrimidin-4-one]", "values": [
      {"measurement": "pIC50", "value": 7.33}
    ]},
    {"compound": "C[C@H]1C[C@@H](N)C2(CCN(c3nc4[nH]nc(-c5ccnc(N(C)C)c5Cl)c4c(=O)n3C)CC2)C1", "note": "[Example 73, 6-((1R,3R)-1-amino-3-methyl-8-azaspiro[4.5]decan-8-yl)-3-(3-chloro-2-(dimethylamino)pyridin-4-yl)-5-methyl-1,5-dihydro-4H-pyrazolo[3,4-d]pyrimidin-4-one]", "values": [
      {"measurement": "pIC50", "value": 7.55}
    ]},
    {"compound": "C[C@@H]1OCC2(CCN(c3nc4[nH]nc(-c5ccnc(NCC6CC6)c5Cl)c4c(=O)n3C)CC2)[C@@H]1N", "note": "[Example 74, 6-((3S,4S)-4-amino-3-methyl-2-oxa-8-azaspiro[4.5]decan-8-yl)-3-(3-chloro-2-((cyclopropylmethyl)amino)pyridin-4-yl)-5-methyl-1,5-dihydro-4H-pyrazolo[3,4-d]pyrimidin-4-one]", "values": [
      {"measurement": "pIC50", "value": 7.41}
    ]},
    {"compound": "C[C@H]1C[C@@H](N)C2(CCN(c3nc4[nH]nc(-c5ccnc(N)c5Cl)c4c(=O)n3C)CC2)C1", "note": "[Example 76, 3-(2-amino-3-chloropyridin-4-yl)-6-((1R,3R)-1-amino-3-methyl-8-azaspiro[4.5]decan-8-yl)-5-methyl-1,5-dihydro-4H-pyrazolo[3,4-d]pyrimidin-4-one]", "values": [
      {"measurement": "pIC50", "value": 7.49}
    ]},
    {"compound": "CNc1nccc(-c2n[nH]c3nc(N4CCC5(CC4)C[C@@H](C)C[C@H]5N)n(C)c(=O)c23)c1Cl", "note": "[Example 77, 6-((1R,3R)-1-amino-3-methyl-8-azaspiro[4.5]decan-8-yl)-3-(3-chloro-2-(methylamino)pyridin-4-yl)-5-methyl-1,5-dihydro-4H-pyrazolo[3,4-d]pyrimidin-4-one]", "values": [
      {"measurement": "pIC50", "value": 7.52}
    ]},
    {"compound": "Cc1c(-c2n[nH]c3nc(N4CCC5(CC4)CO[C@@H](C)[C@H]5N)n(C)c(=O)c23)ccnc1Cl", "note": "[Example 78, 6-((3S,4S)-4-amino-3-methyl-2-oxa-8-azaspiro[4.5]decan-8-yl)-3-(2-chloro-3-methylpyridin-4-yl)-5-methyl-1,5-dihydro-4H-pyrazolo[3,4-d]pyrimidin-4-one]", "values": [
      {"measurement": "pIC50", "value": 7.77}
    ]},
    {"compound": "C[C@@H]1OCC2(CCN(c3nc4[nH]nc(-c5cc(Cl)ncc5Cl)c4c(=O)n3C)CC2)[C@@H]1N", "note": "[Example 79, 6-((3S,4S)-4-amino-3-methyl-2-oxa-8-azaspiro[4.5]decan-8-yl)-3-(2,5-dichloropyridin-4-yl)-5-methyl-1,5-dihydro-4H-pyrazolo[3,4-d]pyrimidin-4-one]", "values": [
      {"measurement": "pIC50", "value": 7.52}
    ]}
  ]
}
